“And” between values parts separate entries of the source, which are not always exact repeats. Identical values can stand only once. No end group written: not given here.
How the values were obtained:
PBMCs = assay: Resazurin-based cytotoxicity assay, PBMCs; format: cell-based, human; settings: 50 μM peptide, 24 h
Description: The cytotoxic properties of Lc-def and melittin as a control were investigated also by resazurin-based cell cytotoxicity assay. PBMCs and THP-1 cells were seeded in 96-well plates at 2 × 10^6 and 1 × 10^6 cells per well, respectively, in RPMI-1640 supplemented with 10% FBS, and kept in CO2-incubator. After 24 h serial two-fold dilutions of compounds in culture medium were then added to final concentrations from 0.2 to 50 μM. After 24 h of incubation with the peptides, resazurin (Sigma) was added at a final concentration of 0.7 mM, and the plates were incubated overnight (16 h). Fluorescent resorufin was registered using 535/595 filter at PlateReader AF2200 (Eppendorf, Hamburg, Germany). Untreated corresponding cells were used as negative controls. The cell viability was calculated as: cell viability (%) = (Fsample/Fcontrol) × 100%. The experiment was carried out twice in triplicate.

[1] = tested on: regulatory CD4+ FoxP3+ T cells (Tregs); assay: Cytokine response by multiplex xMAP, Tregs; format: cell-based, human; settings: CD4+CD25+ Tregs, 2 µM, 24 h
Description: Colorectal adenocarcinoma Caco-2 cell line (ATCC HTB-37) was cultured in complete DMEM/F12 (1:1) medium containing 10% fetal bovine serum (FBS, Gibco) and 1X antibiotic-antimycotic solution (1XAAS, Invitrogen, Waltham, MA, USA). The acute monocytic leukemia THP-1 line (ATCC TIB-202) was cultured in complete RPMI-1640 medium, containing 10% FBS, 1XAAS, and […]. THP-1 cells were differentiated into pro-inflammatory macrophages (Mφ1) with phorbol 12-myristate 13-acetate (Sigma-Aldrich) for 24 h and subsequently polarized with lipopolysaccharide from E. coli (Sigma-Aldrich) and rhIFN-γ (Sigma-Aldrich) for another 48 h according to previously reported protocol. All cells were cultured in a humidified CO2 incubator (5% CO2, 37 °C). Primary peripheral blood mononuclear cells (PBMCs) collected from a healthy donor were purchased from American Type Culture Collection (ATCC PCS-800-011). CD4^+ T-helper and CD8^+ T cytotoxic cells were isolated from PBMCs by magnetic separation with mouse anti-human CD4-PE (clone 13B8.2, Beckman Coulter Diagnostics, Pasadena, CA, USA) and CD8-PE (clone REA734, Miltenyi Biotec, Bergisch Gladbach, Germany), Anti-PE MicroBeads (Miltenyi Biotec), and LS Separation Columns (Miltenyi Biotec). Isolated CD4^+ and CD8^+ cells were expanded separately with Dynabeads™ Human T-Expander CD3/CD28 (Gibco, Waltham, MA, USA) in RPMI-1640 supplemented with 10% FBS, 1XAAS and 100 U/mL rh-IL-2 (Gibco). Regulatory CD4^+ FoxP3^+ T cells (Tregs) were isolated from PBMCs by magnetic separation with CD4^+CD25^+ Regulatory T Cell Isolation Kit, human (Miltenyi Biotec). Primary CD14^+ blood monocytes were isolated from PBMCs by adherence according to standard technique. Monocyte-derived mature dendritic cells (moDCs) were obtained from CD14^+ blood monocytes according to the previously reported protocol. Briefly, blood monocytes were incubated in complete RPMI-1640 medium, containing 10% FBS, 1XAAS, 800 U/mL rhGM-CSF (Sci-Store, Russia, Moscow) and 500 U/mL rhIL-4 (Sci-Store) for 3 days. Fresh complete RPMI-1640 medium with rhGM-CSF and rhIL-4 was added to the culture on day 3. On day 5, fresh complete RPMI-1640 containing 100 U/mL rhTNF-α (Sigma) as well as 800 U/mL rhGM-CSF and 500 U/mL rhIL-4 was added and the culture was incubated for another 4 days until full maturation.
Caco-2 cells were seeded into the wells of a 48-well plate, coated with 0.1% bovine collagen (Sigma-Aldrich) for 24 h, 3 weeks before the experiment with complete DMEM/F12 (1:1) medium renewal every 2–3 days. Monocytes, moDCs, CD4^+ T-helper and CD8^+ T cytotoxic cells, Mφ1, and Regulatory CD4^+ FoxP3^+ T cells were seeded into the wells of 48-well plates in the complete RPMI-1640 medium supplemented with 10% Human AB serum (HABS, Capricorn Scientific, Ebsdorfergrund, Germany) and 1XAAS 24 h prior to the experiment; medium in Caco-2-containing wells was also replaced with the same medium. After 24 h, half of the medium in each well was replaced by fresh complete RPMI-1640 medium with 10% HABS, supplemented with 4 µM of Lc-def for the sample wells or fresh medium alone for the control wells. Cell cultures were kept in CO2-incubator (5% CO2, 37 °C) for another 24 h. Culture supernatants were collected 24 h later and stored at −70 °C degrees less than one month prior to the analytes assessment. […]

Q: Which cell viability (PBMCs) does the source give for “Lc-def: defensin from lentil Lens culinaris seeds (UniProt:B3F051), recombinant, overexpressed in Escherichia coli (KTCENLSDSFKGPCIPDGNCNKHCKEKEHLLSGRCRDDFRCWCTRNC; disulfide (positions not given here); ends not checked; also: disulfide bonds present, pairing not given here; UniProt B3F051 28-74, looked up)” here?
A: Its cell viability is 100%.

Q: What about the EGF [1] of the same substance?
A: Its EGF is 4.15 pg/mL.

Q: What about the Eotaxin [1] of the same substance?
A: Its Eotaxin is <3.23↓ pg/ml.

Q: What about the FGF-2 [1] of the same substance?
A: Its FGF-2 is 34.19 pg/mL.

Q: What about the FLT-3L [1] of the same substance?
A: The FLT-3L was 0.62 pg/mL.

Q: And the Fractalkine [1]?
A: The Fractalkine was <23.19↓ pg/ml.

Q: What about the G-CSF [1] of the same substance?
A: Its G-CSF is 9.93 pg/mL.

Q: What about the GM-CSF [1] of the same substance?
A: The GM-CSF was 54.75 pg/mL.

Q: And the GROa [1]?
A: The GROa was 29.97 pg/mL.

Q: And the IFNa2 [1]?
A: The IFNa2 was <4.43↓ pg/ml.

Q: And the IFNg [1]?
A: The IFNg was 38.55 pg/mL.

Q: And the IL-1RA [1]?
A: Its IL-1RA is 1.04 pg/mL.

Q: And the IL-1a [1]?
A: The IL-1a was 19.36 pg/mL.

Q: And the IL-1b [1]?
A: The IL-1b was <18.72↓ pg/ml.

Q: What about the IL-2 [1] of the same substance?
A: The IL-2 was 4.82 pg/mL.

Q: And the IL-3 [1]?
A: The IL-3 was <0.48↓ pg/ml.

Q: And the IL-4 [1]?
A: Its IL-4 is <0.31↓ pg/ml.

Q: What about the IL-5 [1] of the same substance?
A: The IL-5 was <0.24↓ pg/ml.

Q: And the IL-6 [1]?
A: The IL-6 was 317 pg/mL and 317.05 pg/mL.

Q: And the IL-7 [1]?
A: The IL-7 was <0.33↓ pg/ml.

Q: And the IL-8 [1]?
A: The IL-8 was 1247 pg/mL.

Q: And the IL-9 [1]?
A: The IL-9 was 5.08 pg/mL.

Q: What about the IL-10 [1] of the same substance?
A: Its IL-10 is 42.25 pg/mL.

Q: What about the “IL-12 (p40)” value [1] of the same substance?
A: Its value is 19.56 pg/mL.

Q: And the “IL-12 (p70)” value [1]?
A: Its value is 3.39 pg/mL.

Q: And the IL-13 [1]?
A: Its IL-13 is 7.95 pg/mL.

Q: What about the IL-15 [1] of the same substance?
A: The IL-15 was <1.45↓ pg/ml.

Q: And the IL-17A [1]?
A: The IL-17A was 2.6 pg/mL.

Q: What about the IL-17E/IL-25 [1] of the same substance?
A: Its IL-17E/IL-25 is <20.59↓ pg/ml.

Q: And the IL-17F [1]?
A: Its IL-17F is 51.91 pg/mL.

Q: What about the IL-18 [1] of the same substance?
A: The IL-18 was 0.56 pg/mL.

Q: What about the IL-22 [1] of the same substance?
A: Its IL-22 is 24.29 pg/mL.

Q: And the IL-27 [1]?
A: Its IL-27 is 84.77 pg/mL.

Q: And the IP-10 [1]?
A: The IP-10 was 114.68 pg/mL.

Q: And the M-GSF [1]?
A: Its M-GSF is <23.75↓ pg/ml.

Q: And the MCP-1 [1]?
A: The MCP-1 was 505 pg/mL and 505.45 pg/mL.

Q: What about the MCP-3 [1] of the same substance?
A: Its MCP-3 is 21.04 pg/mL.

Q: What about the MDC [1] of the same substance?
A: The MDC was 968.96 pg/mL.

Q: And the MIG [1]?
A: The MIG was 479.53 pg/mL.

Q: What about the MIP-1a [1] of the same substance?
A: The MIP-1a was 233 pg/mL and 233.56 pg/mL.

Q: What about the MIP-1b [1] of the same substance?
A: Its MIP-1b is 313.49 pg/mL.

Q: And the PDGF-AA [1]?
A: The PDGF-AA was <7.38↓ pg/ml.

Q: And the PDGF-AB/BB [1]?
A: Its PDGF-AB/BB is 119.45 pg/mL.

Q: What about the RANTES [1] of the same substance?
A: Its RANTES is 12.31 pg/mL.

Q: And the TGF-a [1]?
A: The TGF-a was 1.25 pg/mL.

Q: What about the TNFa [1] of the same substance?
A: The TNFa was 97.83 pg/mL.

Q: What about the TNFb [1] of the same substance?
A: Its TNFb is 2.32 pg/mL.

Q: And the VEGFa [1]?
A: The VEGFa was <1.27↓ pg/ml.

Q: And the sCD40L [1]?
A: Its sCD40L is 66.54 pg/mL.

— paper PMC9503459, “Antifungal Activity, Structural Stability, and Immunomodulatory Effects on Human Immune Cells of Defensin from the Lentil Lens culinaris” (Membranes, 2022)
